ChEMBL document CHEMBL1201862, “PubChem BioAssay data set” (2004)
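Step 1: Grow cells in 96-well plates. Step 2: Expose to compound for 48 hours at 5 concentrations. Step 3: Interpolate endpoints linearly; if unreached, use highest concentration. GI50: concentration for 50% inhibition of growth.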 Activity calls are given as the source filed them. Cut-off read from the data, not from the text of the source: active = GI50 up to about 1.1 µM and inactive = higher.

Assays:
Assay in all cases: NCI anticancer screen, dose series, 48 h
SK-MEL-28 = tested on: SK-MEL-28
MOLT-4 = tested on: MOLT-4
SNB-19 = tested on: SNB-19
SNB-75 = tested on: SNB-75
SF-268 = tested on: SF-268
SK-MEL-2 = tested on: SK-MEL-2
NCI-H460 = tested on: NCI-H460
NCI-H522 = tested on: NCI-H522
OVCAR-5 = tested on: OVCAR-5
SNB-78 = tested on: SNB-78
TK-10 = tested on: TK-10
OVCAR-4 = tested on: OVCAR-4
KM-20L2 = tested on: KM-20L2
UO-31 = tested on: UO-31
U-251 = tested on: U-251
HT-29 = tested on: HT-29
M19-MEL = tested on: M19-MEL
CAKI-1 = tested on: CAKI-1
XF498 = tested on: XF498
HCT-15 = tested on: HCT-15
UACC-257 = tested on: UACC-257
DLD-1 = tested on: DLD-1
COLO 205 = tested on: COLO 205
A549 = tested on: A549
LOX IMVI = tested on: LOX IMVI
SW-620 = tested on: SW-620
SN12C = tested on: SN12C
HL-60 = tested on: HL-60
IGROV-1 = tested on: IGROV-1
SK-OV-3 = tested on: SK-OV-3
SK-MEL-5 = tested on: SK-MEL-5
786-0 = tested on: 786-0
K562 = tested on: K562
EKVX = tested on: EKVX
A498 = tested on: A498
SF-539 = tested on: SF-539
HOP-62 = tested on: HOP-62
DMS-273 = tested on: DMS-273
NCI-H226 = tested on: NCI-H226
OVCAR-3 = tested on: OVCAR-3
SF-295 = tested on: SF-295
Malme-3M = tested on: Malme-3M
HCT-116 = tested on: HCT-116
NCI-H23 = tested on: NCI-H23
UACC-62 = tested on: UACC-62
CCRF-CEM = tested on: CCRF-CEM
HOP-92 = tested on: HOP-92
ACHN = tested on: ACHN
OVCAR-8 = tested on: OVCAR-8
DMS-114 = tested on: DMS-114
LXFL 529 = tested on: LXFL 529
M14 = tested on: M14
RPMI-8226 = tested on: RPMI-8226
SR = tested on: SR
HCC 2998 = tested on: HCC 2998
KM12 = tested on: KM12
HOP-18 = tested on: HOP-18
RXF 393 = tested on: RXF 393

With `N#C/C(=C1\SC(C(N)=O)=C(N)N1c1ccccc1)c1nc2ccccc2[nH]1` the GI50 (SK-MEL-28) was > 100 µM (inactive), the GI50 (MOLT-4) was > 100 µM (inactive) and the GI50 (SNB-19) was > 100 µM (inactive). For the same compound, the GI50 (SNB-75) was 48.2 µM (inactive), the GI50 (SF-268) was > 100 µM (inactive) and the GI50 (SK-MEL-2) was > 100 µM (inactive). The GI50 (NCI-H460) was > 100 µM (inactive), the GI50 (NCI-H522) was > 100 µM (inactive) and the GI50 (OVCAR-5) was > 100 µM (inactive). For the same compound, the GI50 (SNB-78) was 44.4 µM (inactive), the GI50 (TK-10) was 87.9 µM (inactive) and the GI50 (OVCAR-4) was > 100 µM (inactive). The GI50 (KM-20L2) was > 100 µM (inactive), the GI50 (UO-31) was 99.1 µM (inactive) and the GI50 (U-251) was > 100 µM (inactive). The GI50 (HT-29) was 82.8 µM (inactive), the GI50 (M19-MEL) was > 100 µM (inactive) and the GI50 (CAKI-1) was > 100 µM (inactive). For the same compound, the GI50 (XF498) was > 100 µM (inactive), the GI50 (HCT-15) was > 100 µM and the GI50 (UACC-257) was > 100 µM (inactive). For the same compound, the GI50 (DLD-1) was > 100 µM (inactive), the GI50 (COLO 205) was 59 µM (inactive) and the GI50 (A549) was > 100 µM (inactive). The GI50 (LOX IMVI) was 32.2 µM (inactive), the GI50 (SW-620) was > 100 µM (inactive) and the GI50 (SN12C) was > 100 µM (inactive). The GI50 (HL-60) was > 100 µM (inactive), the GI50 (IGROV-1) was 37.3 µM (inactive) and the GI50 (SK-OV-3) was > 100 µM (inactive). For the same compound, the GI50 (SK-MEL-5) was > 100 µM (inactive), the GI50 (786-0) was > 100 µM (inactive) and the GI50 (K562) was > 100 µM (inactive). The GI50 (EKVX) was > 100 µM (inactive), the GI50 (A498) was 42.6 µM (inactive) and the GI50 (SF-539) was 75.9 µM (inactive). The GI50 (HOP-62) was > 100 µM (inactive), the GI50 (DMS-273) was > 100 µM (inactive) and the GI50 (NCI-H226) was > 100 µM (inactive). The GI50 (OVCAR-3) was > 100 µM (inactive), the GI50 (SF-295) was > 100 µM (inactive) and the GI50 (Malme-3M) was > 100 µM (inactive). For the same compound, the GI50 (HCT-116) was > 100 µM (inactive), the GI50 (NCI-H23) was > 100 µM (inactive) and the GI50 (UACC-62) was > 100 µM (inactive). The GI50 (CCRF-CEM) was > 100 µM (inactive), the GI50 (HOP-92) was 39.5 µM (inactive) and the GI50 (ACHN) was > 100 µM (inactive). For the same compound, the GI50 (OVCAR-8) was > 100 µM (inactive), the GI50 (DMS-114) was > 100 µM (inactive) and the GI50 (LXFL 529) was > 100 µM (inactive). For the same compound, the GI50 (M14) was > 100 µM (inactive).
`O=C(CC(=O)c1cccc2ccccc12)C(=O)Nc1nccs1` was tested, and the GI50 (SK-MEL-28) was > 100 µM (inactive), the GI50 (MOLT-4) was > 100 µM (inactive) and the GI50 (SNB-75) was 66.2 µM (inactive). For the same compound, the GI50 (SF-268) was > 100 µM (inactive), the GI50 (SK-MEL-2) was > 100 µM (inactive) and the GI50 (NCI-H460) was > 100 µM (inactive). The GI50 (NCI-H522) was > 100 µM (inactive), the GI50 (OVCAR-5) was > 100 µM (inactive) and the GI50 (SNB-78) was > 100 µM (inactive). For the same compound, the GI50 (TK-10) was > 100 µM (inactive), the GI50 (OVCAR-4) was > 100 µM (inactive) and the GI50 (KM-20L2) was > 100 µM (inactive). For the same compound, the GI50 (UO-31) was > 100 µM (inactive), the GI50 (U-251) was > 100 µM (inactive) and the GI50 (HT-29) was > 100 µM (inactive). The GI50 (M19-MEL) was > 100 µM (inactive), the GI50 (CAKI-1) was > 100 µM (inactive) and the GI50 (RPMI-8226) was > 100 µM (inactive). The GI50 (HCT-15) was > 100 µM, the GI50 (UACC-257) was > 100 µM (inactive) and the GI50 (SR) was > 100 µM (inactive). The GI50 (DLD-1) was > 100 µM (inactive), the GI50 (COLO 205) was > 100 µM (inactive) and the GI50 (A549) was > 100 µM (inactive). For the same compound, the GI50 (HCC 2998) was > 100 µM (inactive), the GI50 (LOX IMVI) was > 100 µM (inactive) and the GI50 (SW-620) was > 100 µM (inactive). The GI50 (SN12C) was > 100 µM (inactive), the GI50 (HL-60) was > 100 µM (inactive) and the GI50 (IGROV-1) was > 100 µM (inactive). The GI50 (SK-OV-3) was > 100 µM (inactive), the GI50 (SK-MEL-5) was > 100 µM (inactive) and the GI50 (786-0) was > 100 µM (inactive). The GI50 (K562) was > 100 µM (inactive), the GI50 (EKVX) was > 100 µM (inactive) and the GI50 (A498) was > 100 µM (inactive). For the same compound, the GI50 (SF-539) was > 100 µM (inactive), the GI50 (HOP-62) was > 100 µM (inactive) and the GI50 (KM12) was > 100 µM (inactive). The GI50 (HOP-18) was > 100 µM (inactive), the GI50 (RXF 393) was > 100 µM (inactive) and the GI50 (DMS-273) was > 100 µM (inactive). For the same compound, the GI50 (NCI-H226) was > 100 µM (inactive), the GI50 (OVCAR-3) was > 100 µM (inactive) and the GI50 (SF-295) was > 100 µM (inactive). For the same compound, the GI50 (Malme-3M) was > 100 µM (inactive), the GI50 (HCT-116) was > 100 µM (inactive) and the GI50 (NCI-H23) was > 100 µM (inactive). For the same compound, the GI50 (UACC-62) was > 100 µM (inactive), the GI50 (CCRF-CEM) was > 100 µM (inactive) and the GI50 (HOP-92) was > 100 µM (inactive). For the same compound, the GI50 (ACHN) was > 100 µM (inactive), the GI50 (OVCAR-8) was > 100 µM (inactive) and the GI50 (LXFL 529) was > 100 µM (inactive). For the same compound, the GI50 (M14) was > 100 µM (inactive).
